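Step 1: Grow cells in 96-well plates. Step 2: Expose to compound for 48 hours at 5 concentrations. Step 3: Interpolate endpoints linearly; if unreached, use highest concentration. Here, GI50 denotes the concentration required for 50% inhibition of growth.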 The source made the active and inactive calls. Rule as the data show it: active = GI50 up to about 1.1 µM and inactive = higher.
How the values were obtained:
Assay in all cases: NCI-60 cell line screen, 48 h
[1] = test system: SF-295
[2] = test system: COLO 205
[3] = test system: MDA-MB-231
[4] = test system: EKVX
[5] = test system: MOLT-4
[6] = test system: K562
[7] = test system: KM12
[8] = test system: MCF7
[9] = test system: SW-620
[10] = test system: OVCAR-5
[11] = test system: PC-3
[12] = test system: 786-0
[13] = test system: RXF 393
[14] = test system: MDA-N
[15] = test system: NCI-H522
[16] = test system: SN12C
[17] = test system: TK-10
[18] = test system: UO-31
[19] = test system: Hs-578T
[20] = test system: HL-60

Structure (SMILES)	GI50 [1]	GI50 [2]	GI50 [3]	GI50 [4]	GI50 [5]	GI50 [6]	GI50 [7]	GI50 [8]	GI50 [9]	GI50 [10]	GI50 [11]	GI50 [12]	GI50 [13]	GI50 [14]	GI50 [15]	GI50 [16]	GI50 [17]	GI50 [18]	GI50 [19]	GI50 [20]
COc1cccc2c1CCc1cc3c(N)nc(N)nc3nc1-2	4.42 µM (inactive)	4.02 µM (inactive)	3.09 µM (inactive)	2.12 µM (inactive)	0.653 µM (active)	2.23 µM (inactive)	5.47 µM (inactive)	6.31 µM (inactive)	3.65 µM (inactive)	6.92 µM (inactive)	5.38 µM (inactive)	2.08 µM (inactive)	3.02 µM (inactive)	2.94 µM (inactive)	5.18 µM (inactive)	6.43 µM (inactive)	10.9 µM (inactive)	3.21 µM (inactive)		
COc1ccc(C(c2cc3c(cc2O)OCO3)N2CCOCC2)cc1OC (stereo unspecified)	14.2 µM (inactive)	15.3 µM (inactive)	3.5 µM (inactive)	19.1 µM (inactive)	3.48 µM (inactive)	7.6 µM (inactive)	12.4 µM (inactive)	12.8 µM (inactive)	2.72 µM (inactive)	9.95 µM (inactive)	11.1 µM (inactive)	11.1 µM (inactive)	18.8 µM (inactive)		3.28 µM (inactive)	10.2 µM (inactive)	13.4 µM (inactive)	11.1 µM (inactive)	2.75 µM (inactive)	25.4 µM (inactive)
CN(C)CCNC(=O)c1cc(-c2nccn2C)nc2ccccc12		> 100 µM (inactive)	> 100 µM (inactive)	> 100 µM (inactive)	> 100 µM (inactive)	> 100 µM (inactive)	> 100 µM (inactive)	70.1 µM (inactive)	> 100 µM (inactive)	> 100 µM (inactive)	> 100 µM (inactive)	> 100 µM (inactive)	45.4 µM (inactive)	> 100 µM (inactive)	> 100 µM (inactive)	> 100 µM (inactive)	> 100 µM (inactive)	52.8 µM (inactive)		> 100 µM (inactive)
C/C(C=O)=C1\C(O)C[C@]1(C)C1CC(C)(C)CC1O (stereo partly specified)	41.4 µM (inactive)	> 100 µM (inactive)		> 100 µM (inactive)	35.7 µM (inactive)	54.6 µM (inactive)	> 100 µM (inactive)		> 100 µM (inactive)	> 100 µM (inactive)		> 100 µM (inactive)	> 100 µM (inactive)		32 µM (inactive)	> 100 µM (inactive)	> 100 µM (inactive)	> 100 µM (inactive)		91 µM (inactive)
O=C(Nc1ccc(F)cc1)c1cc2ccc(O)cc2o/c1=N\c1ccccc1F	30.7 µM (inactive)	> 100 µM (inactive)		13.5 µM (inactive)	26.5 µM (inactive)	11.1 µM (inactive)	26.2 µM (inactive)	28.8 µM (inactive)	34.2 µM (inactive)	29.1 µM (inactive)	32.3 µM (inactive)	24.4 µM (inactive)		34.6 µM (inactive)	12.1 µM (inactive)	51.8 µM (inactive)			26.8 µM (inactive)	18.6 µM (inactive)
O=C(CC(Cl)(Cl)C(Cl)(Cl)Cl)c1ccccc1	1.78 µM (inactive)	3.24 µM (inactive)	2.11 µM (inactive)		3.17 µM (inactive)	2.09 µM (inactive)	4.18 µM (inactive)	3.65 µM (inactive)	3.51 µM (inactive)	11.2 µM (inactive)	14.4 µM (inactive)	3.01 µM (inactive)	1.96 µM (inactive)		2.65 µM (inactive)	0.59 µM (active)	6.1 µM (inactive)	3.94 µM (inactive)	3.76 µM (inactive)	8.99 µM (inactive)
CCOc1cc(NC(C)=O)ccc1C(=O)NN1C(=O)/C(=C/c2ccc(Cl)cc2)N=C1c1ccccc1	38.5 µM (inactive)	33.7 µM (inactive)	33.7 µM (inactive)	26 µM (inactive)	17.7 µM (inactive)	35.2 µM (inactive)	34.3 µM (inactive)	4.67 µM (inactive)	> 100 µM (inactive)	> 100 µM (inactive)	43.5 µM (inactive)	74.1 µM (inactive)	33 µM (inactive)	34.3 µM (inactive)		70.6 µM (inactive)	49.1 µM (inactive)	34.9 µM (inactive)		34.1 µM (inactive)
CS/C(=N/C(=O)c1ccccc1)SCCS/C(=N\C(=O)c1ccccc1)SC	> 100 µM (inactive)	> 100 µM (inactive)		> 100 µM (inactive)	> 100 µM (inactive)	> 100 µM (inactive)	> 100 µM (inactive)		> 100 µM (inactive)	> 100 µM (inactive)		> 100 µM (inactive)	73.6 µM (inactive)		69.2 µM (inactive)	> 100 µM (inactive)	> 100 µM (inactive)	> 100 µM (inactive)		> 100 µM (inactive)
Cc1cc(S(=O)(=O)Nc2nc(N)nc(N(C)C)n2)c(S)cc1Cl	> 10 µM (inactive)	> 10 µM (inactive)		> 10 µM (inactive)	> 10 µM (inactive)	> 10 µM (inactive)	> 10 µM (inactive)	> 10 µM (inactive)	> 10 µM (inactive)	> 10 µM (inactive)	> 10 µM (inactive)	> 10 µM (inactive)	> 10 µM (inactive)	> 10 µM (inactive)	> 10 µM (inactive)	> 10 µM (inactive)	> 10 µM (inactive)	> 10 µM (inactive)		> 10 µM (inactive)
CCCCCCNC(=O)CCC(NC(=O)c1ccc(N(C)Cc2cnc3nc(N)nc(N)c3n2)cc1)C(=O)NCCCCCC (stereo unspecified)	16.7 µM (inactive)	> 100 µM (inactive)	34.8 µM (inactive)	37.4 µM (inactive)	> 100 µM (inactive)	2.52 µM (inactive)	> 100 µM (inactive)	18.3 µM (inactive)	> 100 µM (inactive)	> 100 µM (inactive)	> 100 µM (inactive)	> 100 µM (inactive)	39.4 µM (inactive)	9.89 µM (inactive)	63 µM (inactive)	> 100 µM (inactive)	> 100 µM (inactive)	> 100 µM (inactive)		
COc1ccc(C(=O)O/N=C2/CCC/C2=C\c2ccccc2)cc1	> 65.8 µM (inactive)	> 100 µM (inactive)		> 100 µM (inactive)	> 100 µM (inactive)	> 100 µM (inactive)	> 100 µM (inactive)		> 100 µM (inactive)	> 100 µM (inactive)		> 72.3 µM (inactive)	> 83 µM (inactive)		97.3 µM (inactive)	> 100 µM (inactive)	> 91.6 µM (inactive)	> 100 µM (inactive)		> 85.9 µM (inactive)
COc1c(Br)cc(/C=C(\C#N)c2ccccn2)cc1Br	19.2 µM (inactive)	> 100 µM (inactive)		1.26 µM (inactive)	> 100 µM (inactive)	> 100 µM (inactive)	> 100 µM (inactive)	26.1 µM (inactive)	> 100 µM (inactive)	> 100 µM (inactive)	> 100 µM (inactive)	4.09 µM (inactive)	22.8 µM (inactive)	> 10 µM (inactive)	> 100 µM (inactive)	> 100 µM (inactive)	67.6 µM (inactive)	> 100 µM (inactive)		> 100 µM (inactive)

Reference: ChEMBL document CHEMBL1201862, “PubChem BioAssay data set” (2004)
